# Reference: patent US20210230526A1, “Cell enclosure device and use for same” (National Agriculture and Food Research Organization, priority 2016, published 2021)
# Test system: HepG2 cells
# Test: Metabolism of model drug (fluorescein diacetate) by HepG2 cell hepatic tissue-type chip and excretion and accumulation of metabolites to bile canaliculus-like structure
# Format: in vitro ADME, human
# Conditions: for distribution of fluorescein metabolized by HepG2 cells (green fluorescence): 1 hour uptake, after washing twice
# Procedure: (1) A culture medium containing fluorescein diacetate (FD) as a model drug at a concentration of 250 μg/mL was prepared, and 5 mL thereof was poured into a dish (60 mm in diameter ).
# (2) Next, the hepatic tissue-type chip on day 7 of culturing produced using HepG2 cells in Example 1 was immersed in the FD-containing culture medium prepared in (1) and cultured for 1 hour, such that the FD was taken into the cells.
# (3) Next, the chip was transferred into a new dish (diameter: 60 mm), into which 5 mL of Hank's Balanced Salt Solution (HBSS) was poured, and washed.
# (4) Next, the hepatic tissue-type chip was transferred into a new dish (diameter 60 mm ) into which 5 mL of a fresh culture medium was poured, immersed in the culture medium, and cultured for 1 hour. The discharging of fluorescein in the cells after 1 hour was confirmed by observation with a phase contrast microscope and a fluorescence microscope (refer to FIG. 8(A) to FIG. 8(C)).
# (1) HBSS containing fluorescein diacetate (FD) as a model drug at a concentration of 25 μg/mL was prepared, and 5 mL thereof was poured into a dish (60 mm in diameter).
# (2) Next, on day 32 of culturing, the hepatic tissue-type chip produced using HepG2 cells in Example 3 was immersed in the FD-containing HBSS prepared in (1) and cultured for 1 hour such that the FD was taken into the cells.
# (3) Next, the result was transferred into a new dish (diameter 60 mm) into which 5 mL of HBSS was poured, and washed.
# (4) Next, the hepatic tissue-type chip was transferred into a new dish (diameter 60 mm) into which 5 mL of fresh HBSS was poured, immersed in HBSS, and cultured for 1 hour. The discharge of fluorescein in the cells after 1 hour was confirmed by observation with a phase contrast microscope and a fluorescence microscope (refer to FIG. 12A (phase contrast microscope image) and FIG. 12B (fluorescence microscope image)). […]
smiles,measurement,setting,value
O=C1OC2(c3ccc(O)cc3Oc3cc(O)ccc32)c2ccccc21 [fluorescein],excretion of fluorescein from the cells,"Example 2, chip on day 7 of culturing, 1 hour further culture in fresh culture medium after washing",excreted and accumulated in the bile canaliculus-like structure
same,distribution of fluorescein metabolized by HepG2 cells (green fluorescence),"Example 2, chip on day 7 of culturing, FD 250 μg/mL in culture medium",uniformly distributed in the cytoplasm
same,excretion of fluorescein from the cells,"Example 4, chip on day 32 of culturing, 1 hour further culture in fresh HBSS after washing",excreted and accumulated in the bile canaliculus-like structure
same,distribution of fluorescein metabolized by HepG2 cells (green fluorescence),"Example 4, chip on day 32 of culturing, FD 25 μg/mL in HBSS",uniformly distributed in the cytoplasm
same,excretion of fluorescein from the cells,"Example 10, chip on day 35 of culturing, 1 hour further culture in fresh HBSS after washing",excreted and accumulated in the bile canaliculus-like structure
same,distribution of fluorescein metabolized by HepG2 cells (green fluorescence),"Example 10, chip on day 35 of culturing, FD 25 μg/mL in HBSS",uniformly distributed in the cytoplasm
